Measured values taken from patent publication US20250332249A1, “CYTOM[…] CELL EPITOPES AND USES THEREOF” (LA JOLLA INSTITUTE FOR IMMUNOLOGY, priority 2021, published 2025).
Where no end group is shown, it is not given here.

Tested on: PBMCs from HCMV seropositive subjects
Assay: ex vivo IFN-γ Fluorospot assay
Assay type: cell-based, human
Details: 19 HCMV seropositive subjects, individual peptide 10 ug/ml, 20 hr; for No. of subjects responding: IFN-γ; for Magnitude of response: IFN-γ spots (FIG. 1: SFC/10^6 PBMC; no unit in table)
Method: To define the targets of HCMV-specific T cell epitopes recognized in healthy adults, the inventors screened PBMCs of 19 subjects, 10 males and 9 females, recruited from San Diego blood bank (SDBB). The HCMV seropositivity of all the subjects was confirmed by IgG ELISA (FIG. 6A). A total of 2593 HCMV peptides covering a total of 563 ORFs (1) were tested. However, as many of these predicted ORFs overlapped 100% with others, as they were internal to longer ORFs, these 563 contained 359 completely unique ORFs composed of ˜150“canonical” ORFs, and an additional ˜200 identified by ribosomal RNA profiling (1). These peptides corresponded to predicted dominant epitopes, based on a bioinformatic method that predicts promiscuous binding to HLA class II molecules (40). Each of the ORFs above was covered by multiple predicted epitopes (with a minimum of at least 2), with the exception of very small ORFs (less than 15-20 amino acid residues), in which case at least one peptide was synthetized. The 2593 peptides were arranged in 89 pools of 28-30 15-mer peptides. PBMC reactivity of each of the 89 pools was assayed directly ex vivo using an IFN-γ Fluorospot assay.
For the initial CMV ORF screen, the responses of 19 CMV-seropositive subjects were evaluated. PBMCs were stimulated with 89 pools covering 563 ORFs of HCMV. Each pool comprised of 28-30 15-mer peptides overlapping by 10 residues. PBMCs that were found reactive to a pool were further tested against individual peptides contained in the pool using IFN-γ Fluorospot assay.
PBMC were thawed, washed and counted for viability using the trypan blue exclusion method. 200,000 cells were plated in triplicates and stimulated with pools (2 ug/ml) or peptides (10 ug/ml), PHA (10 ug/ml) or medium containing equivalent amount of DMSO in 96-well plates (Immubilion-P, Millipore) previously coated with anti IFN-γ antibody (1-DIK, Mabtech, Stockholm, Sweden). After 20 hr incubation at 37° C., cells were discarded and wells were washed six times with PBS/0.05% Tween 20 using an automated plate washer and further incubated with IFN-γ antibody (7-B6-1-FS-BAM) for 2 hrs at room temperature. After incubation, wells were washed and incubated with fluorophore conjugated anti-BAM-490 antibody for 1 hr at room temperature. Finally, the plates were washed and incubated with fluorescence enhancer for 15 min, blotted dry and fluorescent spots were counted by computer assisted image analysis (IRIS Fluorospot reader, Mabtech, Sweden).
Each pool or peptide was considered positive compared to the background that had equivalent amount of DMSO based on the following criteria: (i) 20 or more spot forming cells (SFC) per 10^6 PBMC after background subtraction, (ii) the stimulation index greater than 2, and (iii) p<0.05 by student's t test or Poisson distribution test

Row | Substance | No. of subjects responding | Magnitude of response
1 | 142 (SGRVILWTTLRLCIL) [compound 142] | 1 | 20
2 | 147 (AVAFLNYSSSSSAVS) [compound 147] | 3 | 2151
3 | 117 (LTWCVIADRQPRFSV) [compound 117] | 3 | 240
4 | 182 (SYLAVHLRISHRYYH) [compound 182] | 1 | 290
5 | 226 (EKYMVLVSHNLDELA) [compound 226] | 1 | 20
6 | 39 (VNAVNKLVYTGRLIM; ends and bridges not checked) [compound 39] | 1 | 340
7 | 73 (NLNCMVTITTARSKY) [compound 73] | 2 | 4810
8 | 15 (FVAESITEFLNIGLR) [compound 15] | 1 | 530
9 | 72 (QLMPDDYSNTHSTRY) [compound 72] | 5 | 45517
10 | 162 (VCLILSFSIVTAALW) [compound 162] | 1 | 43
11 | 146 (GNLQVTYVRHYLKNH) [compound 146] | 4 | 655
12 | 68 (EGIMVVYKRNIVAHT) [compound 68] | 1 | 637
13 | 143 (VVRKYWTFTNPNRIL) [compound 143] | 3 | 16876
14 | 211 (LFCGACVITRSLLLI) [compound 211] | 1 | 487
15 | 199 (SSIFTSTHRGVIVAP) [compound 199] | 1 | 27
16 | 153 (RATGNFRSTSLYAAV) [compound 153] | 3 | 4220
17 | 3 (RVRTWFVQRTTLWRR) [compound 3] | 1 | 60
18 | 18 (AEDSVFTSTRARSAT) [compound 18] | 1 | 490
19 | 46 (SYRSTYIILLLTWFA; ends and bridges not checked) [compound 46] | 3 | 3990
20 | 30 (HLLRNIKTAFGMRVL) [compound 30] | 2 | 1093
21 | 103 (CRSATSLVGNTNADV) [compound 103] | 1 | 30
22 | 114 (GILARNLVPMVATVQ) [compound 114] | 11 | 34633

Row | Substance | No. of subjects responding | Magnitude of response
23 | 210 (LWYLGDYGAILKIYF) [compound 210] | 1 | 40
24 | 145 (VRGGIVENKSVSSVV) [compound 145] | 5 | 2691
25 | 71 (RRSYAYIHTTYLLGS) [compound 71] | 5 | 2730
26 | 156 (RVFCLSADWIRFLSL) [compound 156] | 2 | 846
27 | 140 (MSTKRSTVPWYPITQ) [compound 140] | 3 | 477
28 | 135 (KTQIFNKLFTNRISV; ends and bridges not checked) [compound 135] | 1 | 1587
29 | 74 (NADKFFIFPNYTIVS) [compound 74] | 4 | 5120
30 | 134 (RLGTAATQIQKQTLY; ends and bridges not checked) [compound 134] | 1 | 30
31 | 6 (GAGLRQLRQQLTVRW) [compound 6] | 1 | 20
32 | 234 (FIMRQLMMYPLVLPF) [compound 234] | 1 | 530
33 | 66 (DPSYVREHGVPIHAD) [compound 66] | 1 | 123
34 | 171 (ITKPEVISVMKRRIE) [compound 171] | 1 | 1600
35 | 151 (DPLLRLSQVAGSGRR) [compound 151] | 2 | 2067
36 | 227 (PRLHCLVTTRSSTRE) [compound 227] | 1 | 1277
37 | 53 (EFLVRQYVLVDTFGV) [compound 53] | 2 | 104
38 | 154 (RCCTLRFRRRCRARC) [compound 154] | 2 | 713
39 | 204 (FPSARDIPKQLPEQP) [compound 204] | 1 | 27
40 | 230 (IVVGLPFFLEYAKHH) [compound 230] | 2 | 1250
41 | 13 (LLAVTLTVALAAPSQ; ends and bridges not checked) [compound 13] | 2 | 6420
42 | 34 (LRIIRLLRASIRHEY; ends and bridges not checked) [compound 34] | 1 | 810
43 | 190 (VVRFALYLETLSRIV) [compound 190] | 2 | 123
44 | 177 (STPFLMEHTMPVTHP) [compound 177] | 4 | 740

Row | Substance | No. of subjects responding | Magnitude of response
45 | 229 (TNIMLQVSNVTNHTL) [compound 229] | 1 | 58
46 | 167 (LRRKMMYMCYRNIEF) [compound 167] | 6 | 1697
47 | 33 (MLFRPTISNSIPRCR) [compound 33] | 1 | 47
48 | 54 (RREAIVRLEKTPTCQ) [compound 54] | 2 | 407
49 | 65 (DLKYILTRLEYLYKV) [compound 65] | 1 | 30
50 | 228 (LRYKWLIRKDRFIVR) [compound 228] | 1 | 3247
51 | 219 (WFLVMREQAAIPQIY) [compound 219] | 4 | 1100
52 | 29 (KRYFRPLLRAWSLGL) [compound 29] | 4 | 1388
53 | 172 (FAQYILGADPLRVCS) [compound 172] | 1 | 30
54 | 160 (ISLVTPLTINATLRL) [compound 160] | 1 | 317
55 | 188 (MLRLLFTLVLLALYG) [compound 188] | 3 | 4593
56 | 48 (RRRMVSVTLFSPYSV; ends and bridges not checked) [compound 48] | 1 | 53
57 | 35 (RAHIQKFERLHVRRF; ends and bridges not checked) [compound 35] | 1 | 2523
58 | 216 (VSVLYFMPSEPGSAH) [compound 216] | 1 | 177
59 | 195 (SLDRFIVQYLNTLLI) [compound 195] | 8 | 23368
60 | 152 (LPLCSTARLRLAPRR) [compound 152] | 1 | 467
61 | 141 (LRVTFHRVKPTLQRE) [compound 141] | 2 | 830
62 | 95 (TMRKLKRKQALVKEQ) [compound 95] | 1 | 1563
63 | 212 (MNLVMLILALWAPVA) [compound 212] | 1 | 553
64 | 201 (TAYKAFLWKYAKKLN) [compound 201] | 1 | 503
